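Cultured in 96-well plates, cells were exposed to test compound for 48 hours across five concentrations. TGI is the concentration that stops growth completely.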
How the values were obtained:
Assay in all cases: NCI-60 cell line screen, 48 h
NCI-H522 lung = system: NCI-H522 lung
SNB-75 CNS = system: SNB-75 CNS
UACC-257 melanoma = system: UACC-257 melanoma
A498 renal = system: A498 renal
OVCAR-3 ovarian = system: OVCAR-3 ovarian
EKVX NSCLC = system: EKVX NSCLC
OVCAR-5 ovarian = system: OVCAR-5 ovarian
SF-268 CNS = system: SF-268 CNS
MOLT-4 leukemia = system: MOLT-4 leukemia
OVCAR-4 ovarian = system: OVCAR-4 ovarian
SK-MEL-28 melanoma = system: SK-MEL-28 melanoma
LOX IMVI melanoma = system: LOX IMVI melanoma
COLO 205 colon = system: COLO 205 colon
NCI-H460 lung = system: NCI-H460 lung
HCT-15 colon = system: HCT-15 colon
UACC-62 melanoma = system: UACC-62 melanoma
OVCAR-8 ovarian = system: OVCAR-8 ovarian
KM12 colon = system: KM12 colon
MDA-N = system: MDA-N
T-47D breast = system: T-47D breast
HCT-116 colon = system: HCT-116 colon
SK-MEL-5 melanoma = system: SK-MEL-5 melanoma
SN12C renal = system: SN12C renal
SK-MEL-2 melanoma = system: SK-MEL-2 melanoma
HOP-62 NSCLC = system: HOP-62 NSCLC
K-562 leukemia = system: K-562 leukemia
SF-295 CNS = system: SF-295 CNS
ACHN renal = system: ACHN renal
CCRF-CEM leukemia = system: CCRF-CEM leukemia
M14 melanoma = system: M14 melanoma
NCI-H23 lung = system: NCI-H23 lung
MDA-MB-231 breast = system: MDA-MB-231 breast
DU-145 prostate = system: DU-145 prostate
SF-539 CNS = system: SF-539 CNS
PC-3 prostate = system: PC-3 prostate
A549 NSCLC = system: A549 NSCLC
NCI-H226 lung = system: NCI-H226 lung
RXF 393 renal = system: RXF 393 renal
NCI/ADR-RES ovarian = system: NCI/ADR-RES ovarian
HCC-2998 colon = system: HCC-2998 colon
MCF7 breast = system: MCF7 breast
UO-31 renal = system: UO-31 renal
SR leukemia = system: SR leukemia
U251 CNS = system: U251 CNS
HT29 colon = system: HT29 colon
HL-60(TB) leukemia = system: HL-60(TB) leukemia
SK-OV-3 ovarian = system: SK-OV-3 ovarian
SW-620 colon = system: SW-620 colon
TK-10 renal = system: TK-10 renal
CAKI-1 renal = system: CAKI-1 renal
SNB-19 CNS = system: SNB-19 CNS
IGROV1 ovarian = system: IGROV1 ovarian
RPMI-8226 leukemia = system: RPMI-8226 leukemia
786-0 renal = system: 786-0 renal
MALME-3M melanoma = system: MALME-3M melanoma
MDA-MB-435 = system: MDA-MB-435

## O=c1oc2ccccc2c(O)c1/C=N/C(=S)Nc1ccccc1
NCI-H522 lung
  TGI: > 100 µM
SNB-75 CNS
  TGI: 97.8 µM
UACC-257 melanoma
  TGI: > 100 µM
A498 renal
  TGI: > 100 µM
OVCAR-3 ovarian
  TGI: > 100 µM
EKVX NSCLC
  TGI: > 100 µM
OVCAR-5 ovarian
  TGI: > 100 µM
SF-268 CNS
  TGI: > 100 µM
MOLT-4 leukemia
  TGI: > 100 µM
OVCAR-4 ovarian
  TGI: > 100 µM
SK-MEL-28 melanoma
  TGI: > 100 µM
LOX IMVI melanoma
  TGI: > 100 µM
COLO 205 colon
  TGI: > 100 µM
NCI-H460 lung
  TGI: > 100 µM
HCT-15 colon
  TGI: > 100 µM
UACC-62 melanoma
  TGI: > 100 µM
OVCAR-8 ovarian
  TGI: > 100 µM
KM12 colon
  TGI: > 100 µM
MDA-N
  TGI: > 100 µM
T-47D breast
  TGI: > 100 µM
HCT-116 colon
  TGI: > 100 µM
SK-MEL-5 melanoma
  TGI: > 100 µM
SN12C renal
  TGI: > 100 µM
SK-MEL-2 melanoma
  TGI: 94.7 µM
HOP-62 NSCLC
  TGI: > 100 µM
K-562 leukemia
  TGI: > 100 µM
SF-295 CNS
  TGI: > 100 µM
ACHN renal
  TGI: > 100 µM
CCRF-CEM leukemia
  TGI: > 100 µM
M14 melanoma
  TGI: > 100 µM
NCI-H23 lung
  TGI: > 100 µM
MDA-MB-231 breast
  TGI: > 100 µM
DU-145 prostate
  TGI: > 100 µM
SF-539 CNS
  TGI: > 100 µM
PC-3 prostate
  TGI: > 100 µM
A549 NSCLC
  TGI: > 100 µM
NCI-H226 lung
  TGI: > 100 µM
RXF 393 renal
  TGI: 0.833 µM
NCI/ADR-RES ovarian
  TGI: > 100 µM
HCC-2998 colon
  TGI: > 100 µM

## N#CCCC1(CCC#N)CCc2ccccc2C1=O
MCF7 breast
  TGI: > 100 µM
NCI-H522 lung
  TGI: > 100 µM
SNB-75 CNS
  TGI: > 100 µM
UO-31 renal
  TGI: > 100 µM
UACC-257 melanoma
  TGI: > 100 µM
OVCAR-3 ovarian
  TGI: > 100 µM
SR leukemia
  TGI: > 100 µM
EKVX NSCLC
  TGI: > 100 µM
OVCAR-5 ovarian
  TGI: > 100 µM
SF-268 CNS
  TGI: > 100 µM
MOLT-4 leukemia
  TGI: > 100 µM
U251 CNS
  TGI: > 100 µM
HT29 colon
  TGI: > 100 µM
OVCAR-4 ovarian
  TGI: > 100 µM
SK-MEL-28 melanoma
  TGI: > 100 µM
HL-60(TB) leukemia
  TGI: > 100 µM
LOX IMVI melanoma
  TGI: > 100 µM
SK-OV-3 ovarian
  TGI: > 100 µM
NCI-H460 lung
  TGI: > 100 µM
HCT-15 colon
  TGI: > 100 µM
SW-620 colon
  TGI: > 100 µM
TK-10 renal
  TGI: > 100 µM
UACC-62 melanoma
  TGI: > 100 µM
CAKI-1 renal
  TGI: > 100 µM
OVCAR-8 ovarian
  TGI: > 100 µM
KM12 colon
  TGI: > 100 µM
MDA-N
  TGI: > 100 µM
SNB-19 CNS
  TGI: > 100 µM
T-47D breast
  TGI: > 100 µM
HCT-116 colon
  TGI: > 100 µM
SK-MEL-5 melanoma
  TGI: > 100 µM
IGROV1 ovarian
  TGI: > 100 µM
SN12C renal
  TGI: > 100 µM
SK-MEL-2 melanoma
  TGI: > 100 µM
RPMI-8226 leukemia
  TGI: > 100 µM
HOP-62 NSCLC
  TGI: > 100 µM
K-562 leukemia
  TGI: > 100 µM
ACHN renal
  TGI: > 100 µM
CCRF-CEM leukemia
  TGI: > 100 µM
M14 melanoma
  TGI: > 100 µM
786-0 renal
  TGI: > 100 µM
NCI-H23 lung
  TGI: > 100 µM
MDA-MB-231 breast
  TGI: > 100 µM
DU-145 prostate
  TGI: > 100 µM
SF-539 CNS
  TGI: > 100 µM
PC-3 prostate
  TGI: > 100 µM
NCI-H226 lung
  TGI: > 100 µM
MALME-3M melanoma
  TGI: > 100 µM
NCI/ADR-RES ovarian
  TGI: > 100 µM
MDA-MB-435
  TGI: > 100 µM
HCC-2998 colon
  TGI: > 100 µM

Source: PubChem BioAssay (NCI)
